Reference: patent US6911465B1, “Anti-inflammatory indole derivatives” (AstraZeneca AB, priority 1999, dated 2005)
Where two headings read alike, the source gives them in different places.

Assays:
[1] = biological target: T1, MCP-1 receptor B (CCR2B) (Homo sapiens, UniProt P41597); experiment: hMCP-1 receptor binding assay (125I-MCP-1, CHO-CCR2B cell membranes)
T1 construct: expressed in transfected cells; membrane fragments
T1 sequence (P41597 1-360 isoform P41597-2): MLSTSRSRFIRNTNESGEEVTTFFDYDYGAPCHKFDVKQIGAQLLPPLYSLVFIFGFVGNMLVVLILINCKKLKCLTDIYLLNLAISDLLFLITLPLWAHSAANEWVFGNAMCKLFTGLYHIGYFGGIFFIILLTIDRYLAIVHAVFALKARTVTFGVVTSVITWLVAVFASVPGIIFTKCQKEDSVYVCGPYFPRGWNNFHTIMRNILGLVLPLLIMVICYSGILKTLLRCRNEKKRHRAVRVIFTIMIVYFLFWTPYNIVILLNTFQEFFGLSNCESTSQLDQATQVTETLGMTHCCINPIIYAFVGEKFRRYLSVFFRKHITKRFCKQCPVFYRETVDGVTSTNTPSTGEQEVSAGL
Source text: The MCP-1 receptor B (CCR2B) cDNA was cloned by PCR from THP-1 cell RNA using suitable oligonucleotide primers based on the published MCP-1 receptor sequences (Charo et al., 1994, Proc. Natl. Acad. Sci USA, 91, 2752). The resulting PCR products were cloned into vector PCR-II™ (In Vitrogen, San Diego, Calif.). Error free CCR2B cDNA was subcloned as a Hind III-Not I fragment into the eukaryotic expression vector pCDNA3 (In Vitrogen) to generate pCDNA3/CC-CKR2A and pCDNA3/CCR2B respectively.
Linearised pCDNA3/CCR2B DNA was transfected into CHO-K1 cells by calcium phosphate precipitation (Wigler et al., 1979, Cell, 16, 777). Transfected cells were selected by the addition of Geneticin Sulphate (G418, Gibco BRL) at 1 mg/mlo, 24 hours after the cells had been transfected. Preparation of RNA and Norther Blotting were carried out as described previously (Needham et al., 1995, Prot. Express. Purific., 6, 134). CHO-K1 clone 7 (CHO-CCR2B) was identified as the highest MCP-1 receptor B-expressor. […]
^125I MCP-1 was preapred using Bolton and Hunter conjugation (Bolton et al., 1973, Biochem. J., 133, 529; Amersham International plc]. Equilibrium binding assays were carried out using the method of Ernst et al., 1994, J. Immunol., 152, 3541. Briefly, varying amounts of ^125I-labeled MCP-1 were added to 7 μg of purified CHO-CCR2B cell membranes in 100 μl of Binding Buffer. After 1 hour incubation at room temperature the binding reaction mixtures wre filtered and washed 5 times through a plate washer (Brandel MLR-96T Cell Harvester) using ice cold Binding Buffer. Filter mats (Brandel GF/B) were pre-soaked for 60 minutes in 0.3% polyethyleneimine prior to use. Following filtration individual filters were separated into 3.5 ml tubes (Sarsted No. 55.484) and bound ^125I-labeled MCP-1 was determined (LKB 1277 Gammamaster). […] Non-specific binding was determined by the incinsion of a 200-fold molar excess of unlabelled MCP-1 in the reaction. […]

[2] = system: THP-1 cells; experiment: hMCP-1 mediated chemotaxis of THP-1 cells; type: cell-based, human; conditions: biphasic response
Description: In vitro chemotaxis assays were performed using the human monocytic cell line THP-1. Cell migration through polycarbonate membranes was measured by enumerating those passing through either directly by Coulter counting or indirectly by use of a colourimetric viability assay measuring the cleavage of a tetrazolium salt by the microchondrial respiratory chain (Scudiero D. A. et al. 1988, Cancer Res., 48, 4827-4833).
Chemoattractants were introduced into a 96-well microtiter plate which forms the lower well of a chemotaxis chamber fitted with a PVP-free 5 μm poresize polycarbonate adhesive framed filter membrane (NeuroProbe MB series, Cabin John, MD 20818, USA) according to the manufacturer's instructions. […] The plate was incubated at 37° C. for 3 h and the absorbance of the soluble formazan product was read on a microtiter plate reader at 450 nm. The data was input into a spreadsheet, corrected for any random migration in the absence of chemoattractant and the average absorbance values, standard error of the mean, and significance tests were calculated. hMCP-1 induced concentration dependent cell migration with a characteristic biphasic response, maximal […].

[3] = system: THP-1 cells; experiment: MCP-1 mediated calcium flux in THP-1 cells; type: cell-based, human; conditions: stimulation of THP-1 cells, FURA-2, approximate; read-out: EC50 for rise in [Ca2+]i
Description: The human monocytic cell line THP-1 was grown in a synthetic cell culture medium RPMI 1640 supplemented with 10% foetal calf serum, 6 mM glutamine and Penicillin-Streptomycin (at 50 μg streptomycin/ml, Gibco BRL). THP-1 cells were washed in HBSS (lacking Ca^2+ and Mg^2+)+1 mg/ml BSA and resuspending in the same buffer at a density of 3×10^6 cells/ml. The cells were then loaded with […] FURA-2/AM for 30 min at 37° C., washed twice in HBSS, and resuspended in 1×10^6 cells/ml. THP-1 cell suspension (0.9 ml) was added to a 5 ml disposable curvette containing a magnetic stirrer bar and 2.1 ml of prewarmed (37° C.) HBSS containing 1 mg/ml BSA, 1 mM MgCl2 and 2 mM CaCl2. The cuvette was placed in a fluorescence spectrophootmeter (Perkin Elmer, Norwalk, Conn.) and preincubated for 4 min at 37° C. with stirring. Fluorescence was recorded over 70 sec and cells wre stimulated by addition of hMCP-1 to the curvette after 10 sec. [Ca^2+]i was measured by excitation at 340 nm and 380 nm alternately and subsequent measurement of the intensity of the fluorescence emission at 510 nm. […] Rmax is the maximal fluorescence ratio determined after additional of […] lonomycin, […] ratio determined by the subsequent addition of a Ca^2+ free solution containing 5 mM EGTA, and Sf2/Sb2 is the ratio of fluorescence values at 380 nm excitation determined at Rmin and Rmax, respectively. […]

Row | IC50 ([1]; competition with 100 pM labelled MCP-1, CHO-CCR2B membranes, 0.01-50 μM, read-out: IC50 in hMCP-1 receptor binding assay) | IC50 ([1]; cold competition, unlabelled MCP-1 vs 100 pM 125I-MCP-1, CHO-CCR2B membrane fragments, read-out: IC50 of MCP-1 binding to CCR2B) | Kd ([1]; equilibrium binding, CHO-CCR2B membrane fragments) | EC50 [3] | Compound | concentration of maximal cell migration [2]
1 | 1700 nM | – | – | – | O=C(CN1CCOCC1)Nc1cccc2c1cc(C(=O)O)n2Cc1ccc(Cl)c(Cl)c1 [Compound 2] | –
2 | – | 0.11 nM | 0.12 nM | ~2 nM | MCP-1: Human Monocyte Chemoattractant Protein-1, the chemokine ligand of the CCR2 receptor | 0.5-1.0 nm
